{"source": "patent US5468757A", "about": "“6-azaindole thromboxane synthase inhibitors” (Eli Lilly and Company, priority 1994, dated 1995)", "key": {"thromboxane synthase [1]": {"target": "T1, thromboxane synthase (Homo sapiens, UniProt P24557)", "T1 construct": "incubated with fresh whole human blood that had been anticoagulated with 0.38% trisodium citrate; from tissue; host or cells: fresh whole human blood (citrated, recalcified)", "T1 sequence (P24557 1-533)": "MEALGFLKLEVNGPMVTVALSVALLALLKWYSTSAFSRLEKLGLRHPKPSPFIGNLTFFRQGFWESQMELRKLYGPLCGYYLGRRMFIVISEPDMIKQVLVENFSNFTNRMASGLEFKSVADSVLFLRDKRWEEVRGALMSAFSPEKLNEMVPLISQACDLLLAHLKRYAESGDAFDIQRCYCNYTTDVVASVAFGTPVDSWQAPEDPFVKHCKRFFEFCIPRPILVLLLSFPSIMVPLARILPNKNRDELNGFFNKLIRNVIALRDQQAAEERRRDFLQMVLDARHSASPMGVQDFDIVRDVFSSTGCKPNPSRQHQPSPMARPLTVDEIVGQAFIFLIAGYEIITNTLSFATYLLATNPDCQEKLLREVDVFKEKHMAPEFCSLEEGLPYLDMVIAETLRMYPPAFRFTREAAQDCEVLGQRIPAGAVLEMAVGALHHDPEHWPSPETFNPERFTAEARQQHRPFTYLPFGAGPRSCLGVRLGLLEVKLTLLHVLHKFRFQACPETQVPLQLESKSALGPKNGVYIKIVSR", "assay": "Thromboxane Synthase Inhibition (TSI) Assay: serum TXB2 by radioimmunoassay in whole human blood", "format": "cell-based", "conditions": "for Serum TXB2: mean ± SE, n = 3, vehicle 375", "description": "The ability of the compound of the present invention to be an effective thromboxane synthase inhibitor were evaluated in the following Thromboxane Synthase Inhibition (TSI) Assay with the results shown in Table 1 below:\nMethod for Thromboxane Synthase Inhibition (TSI) Test:\n(§1) The test compound - 6-azaindole-1-hexanoic acid (the compound of Example 1, Part D) was dissolved in dimethylsulfoxide at varying concentrations. The compound solutions and dimethylsulfoxide alone (vehicle) were incubated with fresh whole human blood that had been anticoagulated with 0.38% trisodium citrate, for 30 minutes at 37° C. After 30 minutes, 0.025 ml of 0.5 M calcium chloride solution was added to each 1 ml of blood and further incubated for one hour at 37° C. Serum was prepared by centrifugation of the blood at 2000 x g for 15 minutes in a Beckman table top centrifuge. Serum TXB2 and 6-keto-PGF1a, the stable metabolites of and markers of synthesis of TXA2 and prostacyclin respectively, were measured by radioimmunoassay by commonly used test methods (see, Refs.,1 & 2 below). Results from the radioimmunoassay of TXB2 are shown in Table 1 and indicate the dose-dependent potency of the compound of Example 1, Part D as a thromboxane synthase inhibitor."}, "thromboxane synthase [2]": {"tested_on": "thromboxane synthase", "assay": "Oral activity: serum TXB2 in rats one hour after oral dosing", "format": "in vivo", "conditions": "blood one hour after dosing, mean ± SE, n = 3, dose 0: 340", "description": "The oral activity of 6-azaindole-1-hexanoic acid was established by treating rats via the oral route with solutions of the compound and one hour later collecting blood. The blood was allowed to clot in glass tubes for 1 hour at 37° C. Serum was collected after sedimentation of the clot by centrifugation at 2000 x g for 15 minutes in a Beckman table top centrifuge. The levels of TXB2 were measured in the serum by radioimmunoassay. Decreased levels of TXB2 indicate the presence of compound in the blood resulting from oral absorption. The results of these experiments are shown in Table 3 and document the availability of the compound via the oral route of administration and the dose-dependency of the desired inhibitory effect on serum TXB2."}, "[3]": {"tested_on": "cyclooxygenase and prostacyclin synthase", "assay": "Serum 6-keto-PGF1a by radioimmunoassay in whole human blood (specificity of TSI)", "format": "cell-based", "conditions": "for Serum 6-keto-PGF1a: whole human blood, mean ± SE, n = 3, vehicle 1.6 ± 0.2", "description": "as §1\nData determined from the radioimmunoassay of serum 6-keto-PGF1a (reflecting prostacyclin generation) allowed a determination of the specificity of 6-azaindole-1-hexanoic acid for the inhibition of thromboxane synthase versus cyclooxygenase and prostacyclin synthase as indicated by the serum levels of 6-keto-PGF1a. These values decrease in the presence of a nonspecific inhibitor (i.e., aspirin) but are unchanged or increased by specific TSI. The data in Table 2 documents the expected dose-dependent stimulatory effect of the compound of 6-azaindole-1-hexanoic acid on human serum 6-keto-PGF1a levels and confirm the specific TSI by 6-azaindole-1-hexanoic acid."}}}
{"smiles": "O=C(O)CCCCCn1ccc2ccncc21", "note": "[Example 1 Part D, 6-azaindole-1-hexanoic acid]", "values": [{"measurement": "Serum TXB2", "setting": "thromboxane synthase [1]; 0.01 μM compound", "result": 235, "unit": "ng/mL"}, {"measurement": "Serum TXB2", "setting": "thromboxane synthase [1]; 0.1 μM compound", "result": 109, "unit": "ng/mL"}, {"measurement": "Serum TXB2", "setting": "thromboxane synthase [1]; 1 μM compound", "result": 18.8, "unit": "ng/mL"}, {"measurement": "IC50", "setting": "thromboxane synthase [1]; serum TXB2, mean±SE, n=3, read-out: IC50 (concentration required to reduce thromboxane generation to 50% of vehicle)", "result": "23 ± 4.1", "unit": "nM"}, {"measurement": "Serum TXB2", "setting": "thromboxane synthase [2]; 1 mg/kg p.o.", "result": 85.1, "unit": "ng/mL"}, {"measurement": "Serum TXB2", "setting": "thromboxane synthase [2]; 10 mg/kg p.o.", "result": 18.4, "unit": "ng/mL"}, {"measurement": "Serum 6-keto-PGF1a", "setting": "[3]; 0.01 μM compound", "result": "1.7 ± 0.1", "unit": "ng/mL"}, {"measurement": "Serum 6-keto-PGF1a", "setting": "[3]; 0.1 μM compound", "result": "2.4 ± 0.6", "unit": "ng/mL"}, {"measurement": "Serum 6-keto-PGF1a", "setting": "[3]; 1 μM compound", "result": "2.6 ± 0.7", "unit": "ng/mL"}, {"measurement": "Specificity for inhibition of thromboxane synthase versus cyclooxygenase and prostacyclin synthase", "setting": "[3]; judged from human serum 6-keto-PGF1a levels", "result": "specific TSI"}]}
